Series [1] concerns human hepatic myofibroblasts. Description: DNA synthesis ([3H] thymidine incorporation) in human hepatic myofibroblasts stimulated with PDGF-BB. The class given is cell-based. Particulars: 20 ng/ml PDGF-BB, 30 h, read-out: half maximal inhibition of DNA synthesis elicited by PDGF-BB. The protocol: (§1) FIG. 3: Plots showing the effect of increasing amounts of CB1 antagonist SR141716 on DNA synthesis in human hepatic myofibroblast (panel A) and on wild type mice (shown as WT) and CB1 deficient mice (shown as CB1KO) (panel B). The DNA synthesis is expressed as a percentage of DNA synthesis in cells treated with the vehicle of SR 141716 and plotted against increasing concentrations of SR 141716 in nM. Human hepatic myofibroblast cells were stimulated for 30 h with varying concentrations of the CB1 receptor antagonist SR 141716, in the presence of 20 ng/ml of PDGF-BB [^3H] […] Error bars are shown on the plot. […] Thymidine incorporation into DNA was measured as mean±SEM, from 3-6 experiments obtained from cells isolated from livers of 3 WT and 3 CB1 -/- mice and are expressed as percent of control. […]
(§2) DNA synthesis was measured in triplicate wells by incorporation of [3H] thymidine, as previously described (Tao, J., et al., J Biol Chem, 1999. 274(34): p. 23761-23769). […]
(§3) The cell culture was performed as described in example 1 herein. Cell culture of both human and mouse hepatic myofibroblasts were exposed to increasing doses of CB1 receptor antagonist SR141716 and the DNA synthesis of hepatic myofibroblasts was measured.

In series [2] the test system is murine myofibroblasts isolated from wild type mice. Description: DNA synthesis ([3H] thymidine incorporation) in murine hepatic myofibroblasts from wild type mice stimulated with PDGF-BB. Particulars: 20 ng/ml PDGF-BB, 30 h. The class given is cell-based, mouse. As for the experimental part:
as §1, §2, §3

In series [3] the test system is CB1-/- cells (mouse hepatic myofibroblasts). Description: DNA synthesis ([3H] thymidine incorporation) in hepatic myofibroblasts from CB1-/- mice stimulated with PDGF-BB. The series is classed as cell-based. Conditions: 20 ng/ml PDGF-BB, 30 h. As for the experimental part: as §1, §2, §3
For orientation: Uptake of a labelled nucleoside into DNA is a usual measure of proliferation.

A further series concerns CD1 mice. Description: Mortality induced by chronic carbon tetrachloride intoxication (experimental model of liver fibrosis) in mice. Particulars: 10 mg/kg daily intraperitoneal. The series is classed as in vivo. The text has this:
FIG. 4: Plot showing the effect of SR141716 or its vehicle on the mortality induced by carbon tetrachloride in mice. The survival rate of mice treated with CC14 either with SR141716 (dotted lines) or with no treatment (solid lines showing the administration of vehicle only without CB1 antagonist) is shown against time in days. Time of administration of CC14 is shown by the arrow.
The antifibrogenic potential of the CB1 antagonist SR 141716 in an experimental model of liver fibrosis, induced by chronic intoxication with carbon tetrachloride was evaluated.
SR 141716 (10 mg/kg body weight) was dissolved freshly before use, in a vehicle solution (2 drops of Tween 80 in 10 ml of PBS containing 10% dimethylsulfoxide and 5% ethanol) and sonicated.
CD1 mice were obtained from Janvier (France). All experiments were performed using accepted ethical guidelines. 36 males, aged 10-12 weeks, were used and animals were divided into the following groups: vehicle-treated, olive oil group (n=3); vehicle-treated, CC14 group (n=14); SR 141716-treated olive oil group (n=3); SR 141716A-treated, CC14 group (n=16). Animals were housed in temperature and humidity controlled rooms, kept on a 12-h light/dark cycle and provided unrestricted amounts of food and water, unless otherwise specified. […]

With `Cc1c(C(=O)NN2CCCCC2)nn(-c2ccc(Cl)cc2Cl)c1-c1ccc(Cl)cc1` [SR141716, N-piperidino-5-(4-chlorophenyl)-1-(2,4-dichlorophenyl)-4-methylpyrazole-3-carboxamide], the IC50 in series [1] lay within 300 to 400 nM. For the same compound, the “DNA synthesis elicited by PDGF-BB” value in series [2] is reported as “inhibited”. In series [3], the “proliferation (DNA synthesis elicited by PDGF-BB)” value was “only marginally affected”. Further, the “survival rate at one month” value in the series on CD1 mice (CC14 0.5 ml/kg IP twice a week for one month, started 7 days before CC14) is given as 83%. In addition, the “deaths in sham animals” value in the series with CD1 mice (olive oil (sham) mice) is on record as “no deaths”.

These data come from patent publication US8604060B2, “Use of antagonists of the CBI receptor for the manufacture of a composition useful for the treatment of hepatic diseases” (INSERM, priority 2004, dated 2013).
